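Test compounds were applied to cells in 96-well plates for 48 hours at 5 doses. At the TGI there is no net growth.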
Columns and labels:
Test in all cases: growth of human tumour cells (NCI), 48 h
[1] = test system: NCI-H226 lung
[2] = test system: KM12 colon
[3] = test system: PC-3 prostate
[4] = test system: MDA-N
[5] = test system: SK-MEL-2 melanoma
[6] = test system: IGROV1 ovarian
[7] = test system: NCI-H522 lung
[8] = test system: LOX IMVI melanoma
[9] = test system: UACC-62 melanoma
[10] = test system: DU-145 prostate
[11] = test system: CCRF-CEM leukemia
[12] = test system: SK-MEL-28 melanoma
[13] = test system: OVCAR-5 ovarian
[14] = test system: RXF 393 renal
[15] = test system: K-562 leukemia
[16] = test system: UO-31 renal
[17] = test system: RPMI-8226 leukemia
[18] = test system: HCT-116 colon
[19] = test system: SK-OV-3 ovarian
[20] = test system: HCT-15 colon
[21] = test system: SNB-19 CNS
[22] = test system: SF-268 CNS
[23] = test system: MDA-MB-435
[24] = test system: 786-0 renal
[25] = test system: MOLT-4 leukemia
[26] = test system: SN12C renal
[27] = test system: M14 melanoma
[28] = test system: A549 NSCLC
[29] = test system: HCC-2998 colon
[30] = test system: COLO 205 colon
[31] = test system: OVCAR-3 ovarian
[32] = test system: MDA-MB-231 breast
[33] = test system: SW-620 colon
[34] = test system: T-47D breast
[35] = test system: TK-10 renal
[36] = test system: OVCAR-4 ovarian
[37] = test system: CAKI-1 renal
[38] = test system: SF-295 CNS
[39] = test system: HOP-62 NSCLC
[40] = test system: UACC-257 melanoma
[41] = test system: BT-549 breast
[42] = test system: NCI/ADR-RES ovarian
[43] = test system: SK-MEL-5 melanoma
[44] = test system: HOP-92 NSCLC
[45] = test system: U251 CNS
[46] = test system: MALME-3M melanoma
[47] = test system: ACHN renal
[48] = test system: EKVX NSCLC
[49] = test system: NCI-H460 lung
[50] = test system: MCF7 breast
[51] = test system: A498 renal
[52] = test system: SF-539 CNS
[53] = test system: NCI-H23 lung
[54] = test system: SNB-75 CNS
[55] = test system: OVCAR-8 ovarian
[56] = test system: HS 578T breast
[57] = test system: SR leukemia
[58] = test system: HT29 colon
[59] = test system: HL-60(TB) leukemia

`CC[C@@]1(CCC(=O)NCCc2c[nH]c3ccccc23)CCC(=O)N2CCc3c([nH]c4ccccc34)[C@H]21` was tested. Which TGI [1] did it give?
Its TGI is 77.8 µM.

And the TGI [2]?
Its TGI is 19.4 µM.

What about the TGI [3] of the same compound?
Its TGI is over 100 µM.

What about the TGI [4] of the same compound?
Its TGI is over 100 µM.

And the TGI [5]?
Its TGI is 86.4 µM.

And the TGI [6]?
Its TGI is 30 µM.

What about the TGI [7] of the same compound?
The TGI was 18.8 µM.

What about the TGI [8] of the same compound?
Its TGI is 96.2 µM.

And the TGI [9]?
The TGI was 65.3 µM.

What about the TGI [10] of the same compound?
Its TGI is over 100 µM.

What about the TGI [11] of the same compound?
Its TGI is over 100 µM.

What about the TGI [12] of the same compound?
Its TGI is over 100 µM.

And the TGI [13]?
Its TGI is over 100 µM.

What about the TGI [14] of the same compound?
Its TGI is 33.3 µM.

What about the TGI [15] of the same compound?
The TGI was over 100 µM.

What about the TGI [16] of the same compound?
The TGI was over 100 µM.

And the TGI [17]?
The TGI was 9.59 µM.

What about the TGI [18] of the same compound?
The TGI was over 100 µM.

And the TGI [19]?
Its TGI is over 100 µM.

And the TGI [20]?
The TGI was over 100 µM.

And the TGI [21]?
The TGI was over 100 µM.

What about the TGI [22] of the same compound?
The TGI was 30 µM.

What about the TGI [23] of the same compound?
The TGI was 47.1 µM.

What about the TGI [24] of the same compound?
Its TGI is over 100 µM.

And the TGI [25]?
Its TGI is 34.4 µM.

And the TGI [26]?
The TGI was over 100 µM.

And the TGI [27]?
Its TGI is over 100 µM.

What about the TGI [28] of the same compound?
The TGI was over 100 µM.

What about the TGI [29] of the same compound?
Its TGI is 46.7 µM.

And the TGI [30]?
Its TGI is over 100 µM.

What about the TGI [31] of the same compound?
The TGI was over 100 µM.

What about the TGI [32] of the same compound?
The TGI was over 100 µM.

And the TGI [33]?
The TGI was over 100 µM.

And the TGI [34]?
Its TGI is over 100 µM.

And the TGI [35]?
The TGI was over 100 µM.

What about the TGI [36] of the same compound?
The TGI was over 100 µM.

And the TGI [37]?
The TGI was over 100 µM.

And the TGI [38]?
Its TGI is 60.6 µM.

What about the TGI [39] of the same compound?
The TGI was over 100 µM.

And the TGI [40]?
The TGI was over 100 µM.

And the TGI [41]?
Its TGI is 19.2 µM.

What about the TGI [42] of the same compound?
Its TGI is 33.4 µM.

And the TGI [43]?
Its TGI is over 100 µM.

What about the TGI [44] of the same compound?
The TGI was over 100 µM.

What about the TGI [45] of the same compound?
The TGI was over 100 µM.

What about the TGI [46] of the same compound?
The TGI was 25.4 µM.

And the TGI [47]?
The TGI was over 100 µM.

And the TGI [48]?
Its TGI is over 100 µM.

What about the TGI [49] of the same compound?
The TGI was over 100 µM.

What about the TGI [50] of the same compound?
Its TGI is over 100 µM.

What about the TGI [51] of the same compound?
Its TGI is over 100 µM.

And the TGI [52]?
The TGI was 61.3 µM.

What about the TGI [53] of the same compound?
Its TGI is over 100 µM.

Which results are given for `O=C1O/C(=C\c2ccc(O)cc2)C(c2ccc(O)c(Cl)c2)=C1Cl`?
TGI [1]: > 100 µM; TGI [2]: > 100 µM; TGI [3]: > 100 µM; TGI [4]: 68 µM; TGI [5]: 77.4 µM; TGI [6]: > 100 µM; TGI [7]: 53.3 µM; TGI [8]: > 100 µM; TGI [9]: > 100 µM; TGI [10]: > 100 µM; TGI [11]: > 100 µM; TGI [54]: > 100 µM; TGI [12]: > 100 µM; TGI [13]: > 100 µM; TGI [14]: 73 µM; TGI [15]: > 100 µM; TGI [16]: > 100 µM; TGI [17]: > 100 µM; TGI [19]: > 100 µM; TGI [20]: > 100 µM; TGI [21]: > 100 µM; TGI [22]: > 100 µM; TGI [23]: 81.7 µM; TGI [24]: > 100 µM; TGI [25]: > 100 µM; TGI [55]: > 100 µM; TGI [26]: > 100 µM; TGI [27]: > 100 µM; TGI [28]: > 100 µM; TGI [29]: 89.9 µM; TGI [30]: > 100 µM; TGI [31]: > 100 µM; TGI [32]: > 100 µM; TGI [33]: > 100 µM; TGI [34]: > 100 µM; TGI [35]: > 100 µM; TGI [36]: > 100 µM; TGI [56]: > 100 µM; TGI [37]: > 100 µM; TGI [38]: > 100 µM; TGI [57]: > 100 µM; TGI [39]: > 100 µM; TGI [40]: > 100 µM; TGI [42]: 97.6 µM; TGI [58]: > 100 µM; TGI [43]: 43.2 µM; TGI [44]: 60.6 µM; TGI [45]: > 100 µM; TGI [46]: 74.5 µM; TGI [47]: > 100 µM; TGI [48]: > 100 µM; TGI [49]: > 100 µM; TGI [50]: 47.4 µM; TGI [59]: 94.7 µM; TGI [51]: > 100 µM; TGI [52]: > 100 µM; TGI [53]: 76.6 µM

With `N#Cc1c(N2CCN(c3ccc([N+](=O)[O-])cc3)CC2)[n+](=O)c2ccccc2n1[O-]` as the compound, how does the TGI [2] read?
Its TGI is over 100 µM.

And the TGI [3]?
The TGI was over 100 µM.

And the TGI [4]?
The TGI was over 100 µM.

And the TGI [5]?
The TGI was over 100 µM.

And the TGI [6]?
Its TGI is over 100 µM.

What about the TGI [7] of the same compound?
Its TGI is over 100 µM.

What about the TGI [8] of the same compound?
Its TGI is over 100 µM.

What about the TGI [9] of the same compound?
The TGI was over 100 µM.

And the TGI [10]?
The TGI was over 100 µM.

And the TGI [11]?
Its TGI is over 100 µM.

What about the TGI [54] of the same compound?
Its TGI is over 100 µM.

And the TGI [12]?
The TGI was over 100 µM.

And the TGI [13]?
Its TGI is over 100 µM.

And the TGI [14]?
The TGI was over 100 µM.

What about the TGI [15] of the same compound?
The TGI was over 100 µM.

What about the TGI [17] of the same compound?
The TGI was over 100 µM.

What about the TGI [18] of the same compound?
Its TGI is over 100 µM.

And the TGI [19]?
The TGI was over 100 µM.

And the TGI [20]?
Its TGI is over 100 µM.

And the TGI [21]?
The TGI was over 100 µM.

And the TGI [22]?
The TGI was 0.921 µM.

What about the TGI [23] of the same compound?
The TGI was over 100 µM.

And the TGI [24]?
The TGI was over 100 µM.

And the TGI [25]?
The TGI was over 100 µM.

And the TGI [55]?
Its TGI is over 100 µM.

What about the TGI [26] of the same compound?
Its TGI is over 100 µM.

What about the TGI [27] of the same compound?
The TGI was over 100 µM.

And the TGI [28]?
Its TGI is over 100 µM.

What about the TGI [29] of the same compound?
Its TGI is over 100 µM.

What about the TGI [30] of the same compound?
Its TGI is over 100 µM.

And the TGI [31]?
The TGI was over 100 µM.

What about the TGI [32] of the same compound?
Its TGI is over 100 µM.

And the TGI [33]?
Its TGI is over 100 µM.

And the TGI [34]?
Its TGI is over 100 µM.

And the TGI [35]?
Its TGI is over 100 µM.

And the TGI [36]?
The TGI was over 100 µM.

And the TGI [37]?
The TGI was over 100 µM.

What about the TGI [38] of the same compound?
The TGI was over 100 µM.

And the TGI [57]?
Its TGI is 5.69 µM.

And the TGI [39]?
Its TGI is over 100 µM.

What about the TGI [40] of the same compound?
Its TGI is over 100 µM.

What about the TGI [41] of the same compound?
The TGI was over 100 µM.

What about the TGI [42] of the same compound?
Its TGI is over 100 µM.

What about the TGI [58] of the same compound?
Its TGI is over 100 µM.

And the TGI [43]?
The TGI was over 100 µM.

What about the TGI [45] of the same compound?
Its TGI is over 100 µM.

What about the TGI [46] of the same compound?
The TGI was over 100 µM.

What about the TGI [47] of the same compound?
Its TGI is over 100 µM.

What about the TGI [48] of the same compound?
Its TGI is over 100 µM.

And the TGI [49]?
The TGI was over 100 µM.

What about the TGI [50] of the same compound?
The TGI was over 100 µM.

And the TGI [52]?
Its TGI is over 100 µM.

And the TGI [53]?
The TGI was over 100 µM.

Source: PubChem BioAssay (NCI)
